{"source": "the supplement of paper PMC13207355", "settings_in_all_cases": "exposure time: 72 h", "key": {"[1]": {"tested_on": "E31 (patient-derived glioblastoma stem cells of proneural subtype)", "assay": "surviving fraction (nuclei count normalised to DMSO); higher = more cells surviving (less toxic)"}, "[2]": {"tested_on": "E34 (patient-derived glioblastoma stem cells of proneural subtype)", "assay": "surviving fraction (nuclei count normalised to DMSO); higher = more cells surviving (less toxic)"}, "[3]": {"tested_on": "E28 (patient-derived glioblastoma stem cells of classical subtype)", "assay": "surviving fraction (nuclei count normalised to DMSO); higher = more cells surviving (less toxic)"}, "[4]": {"tested_on": "FT3469 (normal neural stem cell line)", "assay": "surviving fraction (nuclei count normalised to DMSO); higher = more cells surviving (less toxic)"}, "[5]": {"tested_on": "E57 (patient-derived glioblastoma stem cells of mesenchymal subtype)", "assay": "surviving fraction (nuclei count normalised to DMSO); higher = more cells surviving (less toxic)"}, "[6]": {"tested_on": "E21 (patient-derived glioblastoma stem cells of mesenchymal subtype)", "assay": "surviving fraction (nuclei count normalised to DMSO); higher = more cells surviving (less toxic)"}, "[7]": {"tested_on": "E13 (patient-derived glioblastoma stem cells of classical subtype)", "assay": "surviving fraction (nuclei count normalised to DMSO); higher = more cells surviving (less toxic)"}, "[8]": {"tested_on": "E31", "assay": "phenotypic distance (Euclidean, principal components) from DMSO controls (arbitrary units); higher = stronger morphological change"}, "[9]": {"tested_on": "E34", "assay": "phenotypic distance (Euclidean, principal components) from DMSO controls (arbitrary units); higher = stronger morphological change"}, "[10]": {"tested_on": "E28", "assay": "phenotypic distance (Euclidean, principal components) from DMSO controls (arbitrary units); higher = stronger morphological change"}, "[11]": {"tested_on": "FT3469", "assay": "phenotypic distance (Euclidean, principal components) from DMSO controls (arbitrary units); higher = stronger morphological change"}, "[12]": {"tested_on": "E57", "assay": "phenotypic distance (Euclidean, principal components) from DMSO controls (arbitrary units); higher = stronger morphological change"}, "[13]": {"tested_on": "E21", "assay": "phenotypic distance (Euclidean, principal components) from DMSO controls (arbitrary units); higher = stronger morphological change"}, "[14]": {"tested_on": "E13", "assay": "phenotypic distance (Euclidean, principal components) from DMSO controls (arbitrary units); higher = stronger morphological change"}}, "data": [{"compound": "CCCCC1C(=O)N(c2ccccc2)N(c2ccc(O)cc2)C1=O", "note": "(stereo not drawn) [Oxyphenbutazone];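 for phenotypic distance (Euclidean, principal components) from DMSO controls: cell Painting imaging in 384-well plates, CellProfiler features reduced to at least 20 principal components, Euclidean distance versus same-plate DMSO vehicle wells (0.1% v/v), median over six images per well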;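 for surviving fraction (nuclei count normalised to DMSO): nuclei counted by high-content imaging of Hoechst-stained cells in laminin-coated 384-well plates, relative to 0.1% DMSO vehicle wells, with staurosporine as cell-death control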", "values": [{"measurement": "surviving fraction", "setting": "[1]; 4.1 nM", "result": 0.93}, {"measurement": "surviving fraction", "setting": "[1]; 12.3 nM", "result": 0.906}, {"measurement": "surviving fraction", "setting": "[1]; 37 nM", "result": 0.918}, {"measurement": "surviving fraction", "setting": "[1]; 111.1 nM", "result": 1.01}, {"measurement": "surviving fraction", "setting": "[1]; 333.3 nM", "result": 0.939}, {"measurement": "surviving fraction", "setting": "[1]; 1000 nM", "result": 1.07}, {"measurement": "surviving fraction", "setting": "[1]; 3000 nM", "result": 0.941}, {"measurement": "surviving fraction", "setting": "[2]; 4.1 nM", "result": 0.971}, {"measurement": "surviving fraction", "setting": "[2]; 12.3 nM", "result": 1.07}, {"measurement": "surviving fraction", "setting": "[2]; 37 nM", "result": 0.978}, {"measurement": "surviving fraction", "setting": "[2]; 111.1 nM", "result": 1.07}, {"measurement": "surviving fraction", "setting": "[2]; 333.3 nM", "result": 1.04}, {"measurement": "surviving fraction", "setting": "[2]; 1000 nM", "result": 1.11}, {"measurement": "surviving fraction", "setting": "[2]; 3000 nM", "result": 1.01}, {"measurement": "surviving fraction", "setting": "[3]; 4.1 nM", "result": 1.06}, {"measurement": "surviving fraction", "setting": "[3]; 12.3 nM", "result": 1.05}, {"measurement": "surviving fraction", "setting": "[3]; 37 nM", "result": 1.06}, {"measurement": "surviving fraction", "setting": "[3]; 111.1 nM", "result": 1.06}, {"measurement": "surviving fraction", "setting": "[3]; 333.3 nM", "result": 0.96}, {"measurement": "surviving fraction", "setting": "[3]; 1000 nM", "result": 1.02}, {"measurement": "surviving fraction", "setting": "[3]; 3000 nM", "result": 1.07}, {"measurement": "surviving fraction", "setting": "[4]; 4.1 nM", "result": 0.985}, {"measurement": "surviving fraction", "setting": "[4]; 12.3 nM", "result": 0.955}, {"measurement": "surviving fraction", "setting": "[4]; 37 nM", "result": 0.951}, {"measurement": "surviving fraction", "setting": "[4]; 111.1 nM", "result": 1.13}, {"measurement": "surviving fraction", "setting": "[4]; 333.3 nM", "result": 1.03}, {"measurement": "surviving fraction", "setting": "[4]; 1000 nM", "result": 0.989}, {"measurement": "surviving fraction", "setting": "[4]; 3000 nM", "result": 1.08}, {"measurement": "surviving fraction", "setting": "[5]; 4.1 nM", "result": 1.04}, {"measurement": "surviving fraction", "setting": "[5]; 12.3 nM", "result": 1.02}, {"measurement": "surviving fraction", "setting": "[5]; 37 nM", "result": 0.983}, {"measurement": "surviving fraction", "setting": "[5]; 111.1 nM", "result": 0.979}, {"measurement": "surviving fraction", "setting": "[5]; 333.3 nM", "result": 1.06}, {"measurement": "surviving fraction", "setting": "[5]; 1000 nM", "result": 0.965}, {"measurement": "surviving fraction", "setting": "[5]; 3000 nM", "result": 0.938}, {"measurement": "surviving fraction", "setting": "[6]; 4.1 nM", "result": 1.04}, {"measurement": "surviving fraction", "setting": "[6]; 12.3 nM", "result": 1.09}, {"measurement": "surviving fraction", "setting": "[6]; 37 nM", "result": 0.947}, {"measurement": "surviving fraction", "setting": "[6]; 111.1 nM", "result": 1.05}, {"measurement": "surviving fraction", "setting": "[6]; 333.3 nM", "result": 0.957}, {"measurement": "surviving fraction", "setting": "[6]; 1000 nM", "result": 1.05}, {"measurement": "surviving fraction", "setting": "[6]; 3000 nM", "result": 1.1}, {"measurement": "surviving fraction", "setting": "[7]; 4.1 nM", "result": 1.06}, {"measurement": "surviving fraction", "setting": "[7]; 12.3 nM", "result": 1.12}, {"measurement": "surviving fraction", "setting": "[7]; 37 nM", "result": 0.991}, {"measurement": "surviving fraction", "setting": "[7]; 111.1 nM", "result": 1.1}, {"measurement": "surviving fraction", "setting": "[7]; 333.3 nM", "result": 1.11}, {"measurement": "surviving fraction", "setting": "[7]; 1000 nM", "result": 1.04}, {"measurement": "surviving fraction", "setting": "[7]; 3000 nM", "result": 0.978}, {"measurement": "phenotypic distance", "setting": "[8]; 4.1 nM", "result": 0.939}, {"measurement": "phenotypic distance", "setting": "[8]; 12.3 nM", "result": 1.97}, {"measurement": "phenotypic distance", "setting": "[8]; 37 nM", "result": 0.848}, {"measurement": "phenotypic distance", "setting": "[8]; 111.1 nM", "result": 0.364}, {"measurement": "phenotypic distance", "setting": "[8]; 333.3 nM", "result": 0.728}, {"measurement": "phenotypic distance", "setting": "[8]; 1000 nM", "result": 0.522}, {"measurement": "phenotypic distance", "setting": "[8]; 3000 nM", "result": 0.632}, {"measurement": "phenotypic distance", "setting": "[9]; 4.1 nM", "result": 0.618}, {"measurement": "phenotypic distance", "setting": "[9]; 12.3 nM", "result": 0.62}, {"measurement": "phenotypic distance", "setting": "[9]; 37 nM", "result": 0.522}, {"measurement": "phenotypic distance", "setting": "[9]; 111.1 nM", "result": 0.833}, {"measurement": "phenotypic distance", "setting": "[9]; 333.3 nM", "result": 0.434}, {"measurement": "phenotypic distance", "setting": "[9]; 1000 nM", "result": 1.17}, {"measurement": "phenotypic distance", "setting": "[9]; 3000 nM", "result": 0.608}, {"measurement": "phenotypic distance", "setting": "[10]; 4.1 nM", "result": 0.723}, {"measurement": "phenotypic distance", "setting": "[10]; 12.3 nM", "result": 0.56}, {"measurement": "phenotypic distance", "setting": "[10]; 37 nM", "result": 0.689}, {"measurement": "phenotypic distance", "setting": "[10]; 111.1 nM", "result": 0.5}, {"measurement": "phenotypic distance", "setting": "[10]; 333.3 nM", "result": 0.608}, {"measurement": "phenotypic distance", "setting": "[10]; 1000 nM", "result": 0.532}, {"measurement": "phenotypic distance", "setting": "[10]; 3000 nM", "result": 0.618}, {"measurement": "phenotypic distance", "setting": "[11]; 4.1 nM", "result": 0.918}, {"measurement": "phenotypic distance", "setting": "[11]; 12.3 nM", "result": 0.982}, {"measurement": "phenotypic distance", "setting": "[11]; 37 nM", "result": 0.908}, {"measurement": "phenotypic distance", "setting": "[11]; 111.1 nM", "result": 0.496}, {"measurement": "phenotypic distance", "setting": "[11]; 333.3 nM", "result": 0.356}, {"measurement": "phenotypic distance", "setting": "[11]; 1000 nM", "result": 0.51}, {"measurement": "phenotypic distance", "setting": "[11]; 3000 nM", "result": 0.472}, {"measurement": "phenotypic distance", "setting": "[12]; 4.1 nM", "result": 0.925}, {"measurement": "phenotypic distance", "setting": "[12]; 12.3 nM", "result": 0.967}, {"measurement": "phenotypic distance", "setting": "[12]; 37 nM", "result": 0.794}, {"measurement": "phenotypic distance", "setting": "[12]; 111.1 nM", "result": 0.629}, {"measurement": "phenotypic distance", "setting": "[12]; 333.3 nM", "result": 0.441}, {"measurement": "phenotypic distance", "setting": "[12]; 1000 nM", "result": 0.546}, {"measurement": "phenotypic distance", "setting": "[12]; 3000 nM", "result": 0.652}, {"measurement": "phenotypic distance", "setting": "[13]; 4.1 nM", "result": 0.965}, {"measurement": "phenotypic distance", "setting": "[13]; 12.3 nM", "result": 0.677}, {"measurement": "phenotypic distance", "setting": "[13]; 37 nM", "result": 0.635}, {"measurement": "phenotypic distance", "setting": "[13]; 111.1 nM", "result": 0.699}, {"measurement": "phenotypic distance", "setting": "[13]; 333.3 nM", "result": 0.588}, {"measurement": "phenotypic distance", "setting": "[13]; 1000 nM", "result": 0.698}, {"measurement": "phenotypic distance", "setting": "[13]; 3000 nM", "result": 0.735}, {"measurement": "phenotypic distance", "setting": "[14]; 4.1 nM", "result": 0.562}, {"measurement": "phenotypic distance", "setting": "[14]; 12.3 nM", "result": 0.782}, {"measurement": "phenotypic distance", "setting": "[14]; 37 nM", "result": 0.706}, {"measurement": "phenotypic distance", "setting": "[14]; 111.1 nM", "result": 0.835}, {"measurement": "phenotypic distance", "setting": "[14]; 333.3 nM", "result": 1.34}, {"measurement": "phenotypic distance", "setting": "[14]; 1000 nM", "result": 0.708}, {"measurement": "phenotypic distance", "setting": "[14]; 3000 nM", "result": 0.404}]}]}
